Assay results from publication PMC5405701 (ChemMedChem, 2017).

Experiments:
ERα = ERα (Homo sapiens, UniProt P03372); assay: cell-based; assay type: cell-based
[1] = molecular target: T1, human ERα ligand binding domain (LBD) (Homo sapiens, UniProt P03372); assay: competitive fluorometric; conditions: relative to parent 2a (compared to 2a and 4a)
T1 sequence (P03372 311-547 limits assumed): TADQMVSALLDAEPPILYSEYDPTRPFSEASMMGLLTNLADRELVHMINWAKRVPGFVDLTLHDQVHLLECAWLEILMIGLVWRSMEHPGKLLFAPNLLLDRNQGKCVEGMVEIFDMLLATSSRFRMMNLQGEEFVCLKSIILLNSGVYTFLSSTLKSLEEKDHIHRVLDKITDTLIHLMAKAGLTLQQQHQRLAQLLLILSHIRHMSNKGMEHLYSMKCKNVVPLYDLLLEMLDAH

ERβ = ERβ (Homo sapiens, UniProt Q92731); assay: cell-based; assay type: cell-based
[2] = test system: MCF-7 breast cancer cells; assay: antiproliferative activity, MTT assay, MCF-7; conditions: Homo sapiens, MCF7, 72 h, read-out: MCF-7 Inhibition (%)
[3] = molecular target: human ERβ ligand binding domain (LBD) (Homo sapiens, UniProt Q92731); assay: competitive fluorometric; conditions: ratio of RBA ERβ to RBA ERα
Sequence of human ERβ ligand binding domain (LBD) (Q92731 264-498 limits assumed): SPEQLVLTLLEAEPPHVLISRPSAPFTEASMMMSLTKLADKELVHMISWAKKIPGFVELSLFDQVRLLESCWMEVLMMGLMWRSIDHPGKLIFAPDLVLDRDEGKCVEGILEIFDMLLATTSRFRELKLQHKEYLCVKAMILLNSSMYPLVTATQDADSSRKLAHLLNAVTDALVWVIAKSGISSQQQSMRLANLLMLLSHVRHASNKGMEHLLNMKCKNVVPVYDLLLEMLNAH

Sequence of ERβ (Q92731 whole entry): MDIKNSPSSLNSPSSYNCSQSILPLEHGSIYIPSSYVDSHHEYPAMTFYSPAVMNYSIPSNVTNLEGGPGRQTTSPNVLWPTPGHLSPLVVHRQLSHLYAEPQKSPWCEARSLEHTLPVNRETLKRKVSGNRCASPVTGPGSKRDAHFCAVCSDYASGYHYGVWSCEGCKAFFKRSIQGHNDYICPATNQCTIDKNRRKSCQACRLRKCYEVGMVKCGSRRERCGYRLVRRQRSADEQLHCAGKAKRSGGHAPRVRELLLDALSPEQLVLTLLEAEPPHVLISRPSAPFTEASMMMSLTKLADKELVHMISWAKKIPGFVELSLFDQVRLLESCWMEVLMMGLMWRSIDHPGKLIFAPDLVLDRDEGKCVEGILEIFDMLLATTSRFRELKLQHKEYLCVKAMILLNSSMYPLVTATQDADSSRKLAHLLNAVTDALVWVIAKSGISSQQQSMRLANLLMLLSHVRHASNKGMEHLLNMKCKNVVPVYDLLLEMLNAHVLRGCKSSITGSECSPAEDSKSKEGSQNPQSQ
Sequence of ERα (P03372 whole entry, the tested form may be a part): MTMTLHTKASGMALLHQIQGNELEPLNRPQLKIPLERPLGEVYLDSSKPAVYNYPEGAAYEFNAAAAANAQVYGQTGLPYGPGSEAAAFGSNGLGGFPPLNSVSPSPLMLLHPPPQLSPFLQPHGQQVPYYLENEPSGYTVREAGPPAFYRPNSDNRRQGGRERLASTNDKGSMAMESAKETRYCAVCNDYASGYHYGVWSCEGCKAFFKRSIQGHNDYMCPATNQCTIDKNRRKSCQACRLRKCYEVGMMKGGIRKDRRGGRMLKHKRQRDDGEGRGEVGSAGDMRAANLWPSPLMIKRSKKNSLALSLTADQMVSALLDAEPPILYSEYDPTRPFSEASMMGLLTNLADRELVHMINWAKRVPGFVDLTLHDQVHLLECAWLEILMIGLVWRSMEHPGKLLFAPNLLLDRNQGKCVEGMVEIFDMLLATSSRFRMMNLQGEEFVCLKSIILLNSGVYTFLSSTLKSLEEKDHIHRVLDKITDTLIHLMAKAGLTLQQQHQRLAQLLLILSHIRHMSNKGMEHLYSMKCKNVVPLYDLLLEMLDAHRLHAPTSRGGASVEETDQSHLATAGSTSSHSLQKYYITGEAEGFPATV

Cc1cc(O)ccc1-c1cc(Br)c(-c2ccc(O)cc2C)[se]1 [Compound 6b, 3-Bromo-2,5-bis(4-hydroxy-2-methylphenyl)selenophene]
EC50 (ERα): 790 nM
Agonist Mode ERα Eff (%E2) (ERα; maximal response as percentage of response to 10^−8 M E2, HEK293T): 21 ± 5 %E2
fold increase in binding affinity for ERα over 2a [1]: more than 23 fold
EC50 (ERβ): 9 nM
Emax (ERβ; HEK-293T, 24 h, read-out: Agonist Mode ERβ Eff (%E2)): 69 ± 9%
transcriptional activity profile on ERβ (ERβ; reporter gene assay, HEK293T): antagonist
inhibition at 10 µM [2]: 2.5%
β/α [3]: 0.74
